Measured values published in patent US9539316B2, “Blood stage malaria vaccine” (priority 2011, dated 2017).

Key:
[1] = test system: P. vinckei; type: in vivo, A/J mice; conditions: for protection against heterologous challenge: 3 doses of 10^6 P. chabaudi pRBC (ring stages) i.v. 2 weeks apart, compound 2 μM, 40 minutes, 37° C., challenge 10^4 P. vinckei (FIG. 7B)
[2] = test system: P. chabaudi; type: in vivo, A/J mice; conditions: for protection against homologous challenge: 3 doses of 10^6 pRBC (ring stages) i.v. 2 weeks apart, compound 2 μM, 40 minutes, 37° C., challenge 10^5 P. chabaudi (FIG. 7A)
[3] = test system: P. chabaudi; conditions: 500 μL blood of mice immunized with 10^7 centanamycin (2 μM or 200 nM) attenuated pRBC taken at day 42 post-innoculation, transferred to naïve reporter mice

For COc1cc2cc(C(=O)N3CC(CCl)c4c3cc(O)c3ccoc43)[nH]c2c(OC)c1OC (stereo not shown) [tafuramycin A, seco-iso-cyclopropylfurano[2,3-e]indoline-TMI], the peak parasite density ([1]; 1 mouse of the group, P. vinckei challenge) was “approximately 20%”, the “protection against heterologous challenge” value [1] was “very significant protection” and the “recovery by day 12” value ([1]; P. vinckei challenge, all animals) was “all the animals had fully recovered”. The “protection against homologous challenge” value [2] was “near complete protection”.

In the case of COc1cc2cc(C(=O)Nc3cc(N)c4ccccc4c3CCCl)[nH]c2c(OC)c1OC [centanamycin], the “parasites detected by microscopy” value [3] is reported as “no parasites detected”, the “parasitaemia by day 11 post-challenge” value ([2]; 3 doses of 10^4, 10^5 or 10^6 pRBC, each group, centanamycin 2 μM (FIG. 4)) is reported as “little or no parasitaemia” and the “protection against homologous challenge” value [2] is reported as “lower”. The “parasitaemia compared between dose groups, e.g. at day 9 post-challenge” value ([2]; 3 doses of 10^6 pRBC versus 10^4 and 10^5, centanamycin 2 μM (FIG. 4)) was “lowest”, the “vaccination efficacy, 200 nM attenuation” value ([2]; 3 doses or a single dose of 10^4 P. chabaudi pRBC treated with 200 nM centanamycin (FIG. 3)) was “effectively vaccinated” and the “vaccine efficacy, 3 doses” value ([2]; centanamycin attenuated P. chabaudi pRBC, 3 doses of vaccine) was “work effectively”. For the same compound, the clinical score data ([2]; immunization with 10^6 centanamycin-treated parasites and challenge (FIG. 6)) was “protected not only from death and high parasitemia but also from symptoms”, the “immunity to virulent challenge (parasitemia)” value ([2]; pRBC treated in vitro with 2 μM centanamycin, 5 doses i.v. 1 week apart, 10^4 parasites each, challenge 10^5 homologous WT pRBC) was “induces immunity to virulent challenge” and the “protection, single dose” value ([2]; single dose of 10^4 pRBC, centanamycin 2 μM, challenge 10^5 pRBC 35 days after vaccination (FIG. 2)) was “induces protection in most animals”. For the same compound, the “parasitaemia at day 8 and 9 post-challenge versus 2 μM attenuated parasites” value ([2]; single dose of 10^7 pRBC attenuated using 200 nM centanamycin (FIG. 5)) was “more significant parasitaemia” and the “recovery by day 13 post-innoculation” value ([2]; single dose of 10^7 pRBC attenuated using 200 nM centanamycin, compared with 2 μM (FIG. 5)) was “recovered to the same extent”.

In the case of COc1cc2cc(C(=O)Nc3cc(O)c4ncc(C)cc4c3CCCl)[nH]c2c(OC)c1OC [AS-VIII-104], the “protection against heterologous challenge” value [1] is reported as “performed similarly to centanamycin”.
